These results are taken from the Deep4Chem optical property database.

The nature of this data set: solvent given as SMILES.

In the case of `CCCC1=Cc2nc1ccc1[nH]c(cc1CCO)c1nc(ccc3[nH]c2cc3CCC)C(CCO)=C1`, the absorption maximum (in Cc1ccccc1) was found to be 638 nm.
For the molecule `c1ccc(N(c2ccccc2)c2ccc(-n3ccc4cc(-c5ccc(C6(c7ccccc7)c7ccccc7-c7ccccc76)cc5)ccc43)cc2)cc1`, the absorption maximum (in ClCCl) is listed as 308 nm.
As for `c1ccc([B-]2(c3ccccc3)Oc3ccc4ccccc4c3-c3c4ccccc4cn[n+]32)cc1`, the absorption maximum (in Cc1ccccc1) is listed as 436 nm.
Take `O=C1OC(=O)c2ccc(N(c3ccccc3)c3ccc4ccc5cccc6ccc3c4c56)c3cccc1c23`: the absorption maximum is 455 nm (in C1CCOC1), 447 nm (in CCCCCC), 465 nm (in ClCCl) and 457 nm (in c1ccccc1).
`CC1=C(c2ccccc2)C2=Cc3c(-c4ccccc4)c(C)c(C)n3[B-](F)(F)[N+]2=C1C` came in with an absorption maximum (in CC#N) of 538 nm.
`CN(C)c1ccc(/C=C/c2ccc(-c3nc(C#N)c(C#N)n3C)cc2)cc1`: the absorption maximum is, setting by setting: (in C1CCCCC1) 376 nm; (in CC#N) 380 nm; (in CO) 378 nm; (in ClC(Cl)Cl) 383 nm.
In turn, `CC(C)CCCCN1CCc2c1ccc1c3c(ccc21)C(=O)CCC3` came in with an absorption maximum (in C1CCCCC1) of 362 nm; an absorption maximum (in CC#N) of 370 nm; an absorption maximum (in CC(C)O) of 376 nm; an absorption maximum (in CCC(C)=O) of 368 nm; an absorption maximum (in CCO) of 374 nm; an absorption maximum (in CCOC(C)=O) of 366 nm. This molecule also returned an absorption maximum (in CS(C)=O) of 376 nm, an absorption maximum (in Cc1ccccc1) of 368 nm, an absorption maximum (in ClCCl) of 373 nm and an absorption maximum (in Clc1ccccc1) of 370 nm.
Regarding `Cc1cc(-c2nc(-c3ccccc3)nc(-c3ccccc3)n2)cc(C)c1N1c2ccccc2CCc2ccccc21`, for the setting “in Cc1ccccc1”, the absorption maximum is listed as 392.74 nm.
Molecule `COc1c2ccccc2c(OC)c2c(C#Cc3ccccc3)c3cc4sccc4cc3c(C#Cc3ccccc3)c12` yielded an absorption maximum (in ClCCl) of 656 nm.
With `CN(C)c1ccc(-c2ccc(-c3cc(N4CCCCC4)c(C#N)c4c3-c3ccccc3CC4)cc2)cc1`, the absorption maximum runs as follows: (in C1CCCCC1) 353 nm; (in C1CCOC1) 342 nm; (in CN(C)C=O) 350 nm; (in CS(C)=O) 342 nm; (in Cc1ccccc1) 360 nm; (in ClC(Cl)Cl) 348 nm.
Where the note is “in Cc1ccccc1”, `c1ccc(-c2nc(-c3ccccc3)nc(-c3ccc(N4c5ccccc5C5(c6ccccc64)c4ccccc4C4(c6ccccc6Sc6ccccc64)c4ccccc45)cc3)n2)cc1` had an absorption maximum of 394.63 nm.
For `COC(=O)c1nc2cnc(N)nc2n1Cc1ccccc1`, the absorption maximum is reported as 331 nm (in C1COCCO1); 330 nm (in CC#N); 335 nm (in CO); 328 nm (in ClCCl); 325 nm (in O).
With `CCCCCCCCCCCCCCCCCC(=O)Oc1cc2[nH]c(cc2CCOC)c2nc(ccc3[nH]c(cc3CCOC)c3nc1C(CCOC)=C3)C(CCOC)=C2`, the absorption maximum (in Cc1ccccc1) is listed as 646 nm.
In the case of `CC(C)(C)c1ccc2c(c1)c1cc(C(C)(C)C)ccc1n2-c1ccc(S(=O)(=O)c2ccc(S(=O)(=O)c3ccc(-n4c5ccc(C(C)(C)C)cc5c5cc(C(C)(C)C)ccc54)cc3)cc2)cc1`, under “in Cc1ccccc1”, the absorption maximum is given as 363 nm.
On to `O=[N+]([O-])c1cc(/N=N/c2cc3c4c(c2)CCCN4CCC3)cc([N+](=O)[O-])c1`, for which the absorption maximum (in CCOC(C)=O) came out at 513 nm.
Regarding `CCN(CC)c1ccc2cc(-c3nc4cc(C(=O)Nc5ccccc5)ccc4o3)c(=O)oc2c1`, the absorption maximum (in ClCCl) is 442 nm.
In turn, `CCn1c2ccccc2sc2c(C#N)c3oc4ccccc4oc3c(C#N)c21` displayed an absorption maximum (in ClC(Cl)Cl) of 460 nm.
In the case of `Cc1oc(-c2ccccc2)nc1C(=O)O`, the absorption maximum by setting is: (in C1CCCCC1) 269 nm; (in CC#N) 267 nm; (in CCO) 273 nm; (in CCOC(C)=O) 267 nm; (in O) 273 nm.
On to `CB1C=Cc2ccc3ccccc3c2N1`, for which the absorption maximum (in C1CCCCC1) is listed as 352 nm.
Still for that read-out and setting: next, `Nc1ccc2cn[nH]c2c1`: 296 nm.
The molecule `CCc1cccc(CC)c1-c1c2ccccc2c(C#Cc2ccccc2)c2cc3ccccc3cc12` displayed an absorption maximum (in ClCCl) of 523 nm.
Where the note is “in CC#N”, `N#Cc1nn(-c2c(Cl)cccc2Cl)nc1N1CCCC1` yielded an absorption maximum of 317 nm.
Take `CCCCCCCCCCC(CCCCCCCCCC)Cn1c2cc(-c3ccc(C(C)(C)C)cc3)c3cccc4c5ccc6c7cc(-c8cc(C(C)(C)C)cc(C(C)(C)C)c8)n8c7c(c7cc1c(c5c76)c2c34)=C1C=CC(c2cc(C(C)(C)C)cc(C(C)(C)C)c2)=[N+]1[B-]8(F)F`: the absorption maximum (in Cc1ccccc1) amounted to 780 nm.
As to `Cc1ccc(-n2c(-c3ccccc3N)nc3c4ccccc4c4ccccc4c32)cc1`, under “in Cc1ccccc1”, the absorption maximum was 311 nm.
Take `Fc1c(F)c(-n2c3ccccc3c3ccccc32)c(F)c(F)c1/C=C/C(=C(c1ccccc1)c1ccccc1)c1ccccc1`: the absorption maximum (in Cc1ccccc1) was found to be 360 nm.
With `F[B-]1(F)Oc2c(-c3cccc4c3O[B-](F)(F)[n+]3c(-c5ccccc5)c(-c5ccccc5)n(-c5ccc(C(F)(F)F)cc5)c3-4)cccc2-c2n(-c3ccc(C(F)(F)F)cc3)c(-c3ccccc3)c(-c3ccccc3)[n+]21`, the absorption maximum (in C1CCOC1) worked out at 342 nm.
As to `C(#Cc1ccccc1)c1ccccc1`, the absorption maximum runs as follows: (in CO) 298 nm; (in ClC(Cl)Cl) 299 nm; (in ClCCl) 299 nm.
Where the note is “in ClCCl”, `c1ccc(C2c3ccccc3-c3cc4c(cc32)-c2ccccc2C4c2ccccc2)cc1` (stereo unspecified) displayed an absorption maximum of 328 nm.
Consider `CCCCCCCCC1(CCCCCCCC)c2ccccc2-c2ccc(-c3nnc(-c4ccc(-n5c6ccc(C(C)(C)C)cc6c6cc(C(C)(C)C)ccc65)cc4)o3)cc21`, for which the absorption maximum (in Cc1ccccc1) stood at 352 nm.
Molecule `Nc1ccc(N2C(=O)c3ccc4c5ccc6c7c(ccc(c8ccc(c3c48)C2=O)c75)C(=O)N(c2ccc(N)cc2)C6=O)cc1` returned an absorption maximum (in CN(C)C=O) of 537 nm.
`CC1=[N+]2C(=C(c3cccs3)c3ccc(C)n3[B-]2(F)F)C=C1c1cc2n(c1)[B-](F)(F)[N+]1=CC=CC1=C2c1c(C)cc(C)cc1C`: the absorption maximum came to 608.5 nm (in C1CCCCC1) and 605 nm (in CCOC(C)=O).
For the setting “in ClC(Cl)Cl”, `CC1=c2cc3c(cc2=[N+]2C1=Cc1c4ccccc4c(C)n1[B-]2(F)F)C1=Cc2c4ccccc4c(C)n2[B-](F)(F)[N+]1=C3C` yielded an absorption maximum of 848 nm.
`COC(=O)c1cc(=O)n(C)c2cc(-c3ccccc3OC)sc12`: the absorption maximum runs as follows: (in CC#N) 396 nm; (in ClCCl) 398 nm.
As to `Nc1ccc2cc3ccccc3cc2c1`, the absorption maximum (in C1CCCCC1) amounted to 397.61 nm.
The same measure, in the same setting: the same measure for `c1ccc(-c2c3c(c(-c4ccccc4)c4c2-c2ccccc2C4)-c2ccccc2C3)cc1`: 329 nm.
Take `CC(=O)c1ccc2ccc3c(NCCC(=O)NCCCCCCc4nc5c(=O)[nH]c(N)nc5n4[C@H]4C[C@H](O)[C@@H](CO)O4)ccc4ccc1c2c43`: the absorption maximum is listed as 451 nm (in C1CCOC1); 440 nm (in CC#N); 452 nm (in CC(C)O); 451 nm (in CCO); 452 nm (in CN(C)C=O); 447 nm (in CO). Besides, the absorption maximum is recorded as 456 nm (in CS(C)=O), 460 nm (in O) and 464 nm (in OCC(O)CO).
